Our source for the IC50, Activity and Ratio IC50 values is ChEMBL document CHEMBL4673221, “Furanoflavones pongapin and lanceolatin B blocks the cell cycle and induce senescence in CYP1A1-overexpressing breast cancer cells” (Bioorg Med Chem, 2018).

The pIC50 is the IC50 on a negative log10 scale, so that one unit is a factor of ten.

One experiment deals with T1, Cytochrome P450 2B6 (Homo sapiens, UniProt P20813).
T1 sequence (P20813 whole entry): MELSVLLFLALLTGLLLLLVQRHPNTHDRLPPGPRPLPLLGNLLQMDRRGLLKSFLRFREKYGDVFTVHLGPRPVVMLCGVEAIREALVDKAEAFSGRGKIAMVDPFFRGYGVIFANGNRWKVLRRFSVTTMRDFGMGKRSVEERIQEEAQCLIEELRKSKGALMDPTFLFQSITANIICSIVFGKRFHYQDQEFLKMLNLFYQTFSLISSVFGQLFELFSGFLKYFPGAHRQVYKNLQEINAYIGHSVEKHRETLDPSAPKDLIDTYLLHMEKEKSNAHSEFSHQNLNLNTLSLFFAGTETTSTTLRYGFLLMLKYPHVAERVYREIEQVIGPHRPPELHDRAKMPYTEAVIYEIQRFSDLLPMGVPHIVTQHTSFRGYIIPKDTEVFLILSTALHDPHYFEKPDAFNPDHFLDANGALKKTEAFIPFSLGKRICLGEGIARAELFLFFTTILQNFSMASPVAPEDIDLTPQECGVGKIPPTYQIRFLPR
In words: Inhibition of human CYP2B6 expressed in Sacchrosomes by fluorescence based assay. Format: ADME.

A further experiment concerns the target Cytochrome P450 2C19 (Homo sapiens, UniProt P33261). In words: Inhibition of human CYP2C19 expressed in Sacchrosomes using 3-cyano-7-ethoxycoumarin as substrate by fluorescence based assay. The experiment is classed as ADME.
The subject of a further experiment is MCF7. In words: Induction of cell cycle arrest in human MCF7 over expressing CYP1A cells assessed as accumulation at G2/M phase incubated for 24 hrs by PI staining based flow cytometric analysis (reference value: 22.6%). The experiment is classed as functional. (A flow cytometer gives signals particle by particle.)
The next experiment has as its target T2, Cytochrome P450 2C18 (Homo sapiens, UniProt P33260).
T2 sequence (P33260 whole entry): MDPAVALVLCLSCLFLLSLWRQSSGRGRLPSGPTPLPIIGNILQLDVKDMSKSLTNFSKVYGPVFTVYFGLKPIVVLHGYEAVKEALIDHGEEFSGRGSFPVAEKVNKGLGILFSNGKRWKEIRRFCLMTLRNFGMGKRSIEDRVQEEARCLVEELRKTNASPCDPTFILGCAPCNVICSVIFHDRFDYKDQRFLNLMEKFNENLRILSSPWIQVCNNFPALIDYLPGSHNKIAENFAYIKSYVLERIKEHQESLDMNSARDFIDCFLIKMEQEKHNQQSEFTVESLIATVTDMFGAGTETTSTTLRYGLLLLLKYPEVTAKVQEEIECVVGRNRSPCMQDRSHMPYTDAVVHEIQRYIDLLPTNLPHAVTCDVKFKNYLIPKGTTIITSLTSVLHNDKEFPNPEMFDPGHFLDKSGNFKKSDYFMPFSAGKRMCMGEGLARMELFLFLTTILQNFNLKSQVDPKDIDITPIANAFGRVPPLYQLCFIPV
In words: Inhibition of human CYP2C18 expressed in Sacchrosomes by fluorescence based assay. Format: ADME.

For experiment [1], the species on record is Homo sapiens. In words: Selectivity ratio IC50 for inhibition of human CYP1B1 expressed in sacchrosomes toIC50 for Inhibition of CYP1A1 expressed in sacchrosomes.
Experiment [2] is filed under the species Homo sapiens. In words: Selectivity ratio IC50 for inhibition of human CYP1A2 expressed in sacchrosomes toIC50 for Inhibition of CYP1A1 expressed in sacchrosomes.

Structures are written as SMILES. pIC50: −log10 of the molar value.

Sequence of Cytochrome P450 2C19 (P33261 whole entry): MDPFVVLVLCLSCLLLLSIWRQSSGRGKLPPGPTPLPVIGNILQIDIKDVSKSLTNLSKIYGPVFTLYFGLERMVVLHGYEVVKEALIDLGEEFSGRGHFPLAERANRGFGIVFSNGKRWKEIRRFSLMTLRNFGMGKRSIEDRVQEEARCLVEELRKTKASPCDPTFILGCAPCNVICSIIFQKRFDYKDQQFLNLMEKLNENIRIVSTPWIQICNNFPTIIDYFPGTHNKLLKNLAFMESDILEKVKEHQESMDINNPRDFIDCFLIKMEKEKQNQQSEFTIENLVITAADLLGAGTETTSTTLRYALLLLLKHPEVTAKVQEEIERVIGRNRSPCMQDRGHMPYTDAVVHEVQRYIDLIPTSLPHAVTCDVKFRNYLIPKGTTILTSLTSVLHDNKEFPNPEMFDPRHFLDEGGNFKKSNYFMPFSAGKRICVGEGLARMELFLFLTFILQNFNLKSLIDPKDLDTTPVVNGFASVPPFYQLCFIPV

As for `O=c1cc(-c2ccccc2)oc2c1ccc1occc12` [LANCEOLATIN B], the pIC50 against Cytochrome P450 2B6, on Cytochrome P450 2C19 and on Cytochrome P450 2C18 was below 4.70 in each case. In addition, the Activity in the experiment on MCF7 is reported as 9.2%.
As for `COc1c(-c2ccc3c(c2)OCO3)oc2c(ccc3occc32)c1=O` [PONGAPIN], the pIC50 at Cytochrome P450 2B6, at Cytochrome P450 2C19 and against Cytochrome P450 2C18 was below 4.70 each time. In the experiment with MCF7, the Activity amounted to 8.3%. In addition, the Ratio IC50 amounted to 52 in the experiment listed under Homo sapiens [1] and 13 in the experiment listed under Homo sapiens [2].
